Eight compounds from patent publication US20120121591A1 (priority 2009, published 2012) can be followed below.

Common to all, as to format: cell-based
The target of one test is hKv1.3 (Homo sapiens, UniProt P22001). Briefly: cell-based. The note with it: Kv1.3 (IWQ) IC50 (nM, Avg).
The test system of test [1] is IL-2 secretion from T cells in human whole blood. The note with it: read-out: WB (IL-2) IC50 (nM, Avg).
Test [2] relates to IFN-g secretion from T cells in human whole blood. Particulars: read-out: WB (IFNg) IC50 (nM, Avg).

Sequence of hKv1.3 (P22001 whole entry): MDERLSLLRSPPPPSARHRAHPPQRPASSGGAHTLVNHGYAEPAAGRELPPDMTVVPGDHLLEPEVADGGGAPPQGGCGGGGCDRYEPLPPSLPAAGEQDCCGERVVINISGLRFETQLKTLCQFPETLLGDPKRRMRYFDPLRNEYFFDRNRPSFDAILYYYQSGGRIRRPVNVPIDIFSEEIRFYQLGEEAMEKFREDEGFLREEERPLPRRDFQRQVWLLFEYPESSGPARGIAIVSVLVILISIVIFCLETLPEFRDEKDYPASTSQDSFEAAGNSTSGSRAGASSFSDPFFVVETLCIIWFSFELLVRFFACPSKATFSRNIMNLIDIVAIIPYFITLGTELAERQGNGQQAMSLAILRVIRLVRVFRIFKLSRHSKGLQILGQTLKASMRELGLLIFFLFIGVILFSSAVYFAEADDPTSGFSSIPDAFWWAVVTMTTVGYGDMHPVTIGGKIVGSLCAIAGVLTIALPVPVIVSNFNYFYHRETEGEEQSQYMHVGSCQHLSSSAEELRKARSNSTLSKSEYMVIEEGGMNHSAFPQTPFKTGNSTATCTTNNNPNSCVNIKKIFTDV

Regarding `CC[C@H](C)[C@@H]1NC(=O)[C@@H](NC(=O)[C@H](CO)NC(=O)[C@@H](N)CCCNC(=N)N)CSSC[C@@H](C(=O)O)NC(=O)[C@H]([C@@H](C)O)NC(=O)CNC(=O)[C@@H]2CSSC[C@@H]3NC(=O)[C@H](CCC(N)=O)NC(=O)[C@H](Cc4ccccc4)NC(=O)[C@H](C)NC(=O)[C@H](CCCNC(=N)N)NC(=O)[C@H](CSSC[C@H](NC(=O)[C@H](Cc4ccccc4)NC(=O)[C@H](CO)NC(=O)[C@H](CC(C)C)NC(=O)[C@H](CCCNC(=N)N)NC(=O)[C@H](Cc4ccc(O)cc4)NC(=O)[C@H](CCCCN)NC(=O)[C@H](CCSC)NC(=O)[C@H](CO)NC(=O)[C@H](Cc4c[nH]cn4)NC(=O)[C@H](CCCCN)NC3=O)C(=O)N[C@@H](CCCNC(=N)N)C(=O)N[C@@H](CCCCN)C(=O)N[C@@H]([C@@H](C)O)C(=O)N2)NC(=O)[C@H](CCCNC(=N)N)NC(=O)[C@H](CO)NC(=O)[C@H](CCCCN)NC(=O)[C@@H]2CCCN2C(=O)[C@H]([C@@H](C)CC)NC(=O)[C@H]([C@@H](C)O)NC(=O)[C@H](CC(=O)O)NC1=O` [[Arg13]ShK], the IC50 – broadly, the point on the concentration scale where inhibition reaches its midpoint – amounted to 0.149 nM at hKv1.3, 0.503 nM in test [1] and 0.629 nM in test [2].

Take `CC[C@H](C)[C@@H]1NC(=O)[C@@H](NC(=O)[C@H](CO)NC(=O)[C@@H](N)CCCNC(=N)N)CSSC[C@@H](C(=O)O)NC(=O)[C@H]([C@@H](C)O)NC(=O)CNC(=O)[C@@H]2CSSC[C@@H]3NC(=O)[C@H](CCC(N)=O)NC(=O)[C@H](Cc4ccccc4)NC(=O)[C@H](CCCNC(=N)N)NC(=O)[C@H]([C@@H](C)O)NC(=O)[C@H](CSSC[C@H](NC(=O)[C@H](Cc4ccccc4)NC(=O)[C@H](CO)NC(=O)[C@H](CC(C)C)NC(=O)[C@H](CCCNC(=N)N)NC(=O)[C@H](Cc4ccc(O)cc4)NC(=O)[C@H](CCCCN)NC(=O)[C@H](CCSC)NC(=O)[C@H](CO)NC(=O)[C@H](Cc4c[nH]cn4)NC(=O)[C@H](CCCCN)NC3=O)C(=O)N[C@@H](CCCNC(=N)N)C(=O)N[C@@H](CCCCN)C(=O)N[C@@H]([C@@H](C)O)C(=O)N2)NC(=O)[C@H](CCCNC(=N)N)NC(=O)[C@H](CO)NC(=O)[C@H](CCCCN)NC(=O)[C@@H]2CCCN2C(=O)[C@H]([C@@H](C)CC)NC(=O)[C@H]([C@@H](C)O)NC(=O)[C@H](CC(=O)O)NC1=O` [[Arg14]ShK]: the IC50 was 0.077 nM against hKv1.3, 0.266 nM in test [1] and 0.307 nM in test [2].

With `CC[C@H](C)[C@@H]1NC(=O)[C@@H](NC(=O)[C@H](CO)NC(=O)[C@@H](N)CCCNC(=N)N)CSSC[C@@H](C(=O)O)NC(=O)[C@H]([C@@H](C)O)NC(=O)CNC(=O)[C@@H]2CSSC[C@@H]3NC(=O)[C@H](CCC(N)=O)NC(=O)[C@H](CCCNC(=N)N)NC(=O)[C@H](C)NC(=O)[C@H]([C@@H](C)O)NC(=O)[C@H](CSSC[C@H](NC(=O)[C@H](Cc4ccccc4)NC(=O)[C@H](CO)NC(=O)[C@H](CC(C)C)NC(=O)[C@H](CCCNC(=N)N)NC(=O)[C@H](Cc4ccc(O)cc4)NC(=O)[C@H](CCCCN)NC(=O)[C@H](CCSC)NC(=O)[C@H](CO)NC(=O)[C@H](Cc4c[nH]cn4)NC(=O)[C@H](CCCCN)NC3=O)C(=O)N[C@@H](CCCNC(=N)N)C(=O)N[C@@H](CCCCN)C(=O)N[C@@H]([C@@H](C)O)C(=O)N2)NC(=O)[C@H](CCCNC(=N)N)NC(=O)[C@H](CO)NC(=O)[C@H](CCCCN)NC(=O)[C@@H]2CCCN2C(=O)[C@H]([C@@H](C)CC)NC(=O)[C@H]([C@@H](C)O)NC(=O)[C@H](CC(=O)O)NC1=O` [[Arg15]ShK], the IC50 turned out to be 0.088 nM at hKv1.3, 0.162 nM in test [1] and 0.204 nM in test [2].

Turning to `CC[C@H](C)[C@@H]1NC(=O)[C@@H](NC(=O)[C@H](CO)NC(=O)[C@@H](N)CCCNC(=N)N)CSSC[C@@H](C(=O)O)NC(=O)[C@H]([C@@H](C)O)NC(=O)CNC(=O)[C@@H]2CSSC[C@@H]3NC(=O)[C@H](CCCNC(=N)N)NC(=O)[C@H](Cc4ccccc4)NC(=O)[C@H](C)NC(=O)[C@H]([C@@H](C)O)NC(=O)[C@H](CSSC[C@H](NC(=O)[C@H](Cc4ccccc4)NC(=O)[C@H](CO)NC(=O)[C@H](CC(C)C)NC(=O)[C@H](CCCNC(=N)N)NC(=O)[C@H](Cc4ccc(O)cc4)NC(=O)[C@H](CCCCN)NC(=O)[C@H](CCSC)NC(=O)[C@H](CO)NC(=O)[C@H](Cc4c[nH]cn4)NC(=O)[C@H](CCCCN)NC3=O)C(=O)N[C@@H](CCCNC(=N)N)C(=O)N[C@@H](CCCCN)C(=O)N[C@@H]([C@@H](C)O)C(=O)N2)NC(=O)[C@H](CCCNC(=N)N)NC(=O)[C@H](CO)NC(=O)[C@H](CCCCN)NC(=O)[C@@H]2CCCN2C(=O)[C@H]([C@@H](C)CC)NC(=O)[C@H]([C@@H](C)O)NC(=O)[C@H](CC(=O)O)NC1=O` [[Arg16]ShK], the IC50 was 0.164 nM on hKv1.3, 0.652 nM in test [1] and 0.818 nM in test [2].

For the compound `CC[C@H](C)[C@@H]1NC(=O)[C@@H](NC(=O)[C@H](CO)NC(=O)[C@@H](N)CCCNC(=N)N)CSSC[C@@H](C(=O)O)NC(=O)[C@H]([C@@H](C)O)NC(=O)CNC(=O)[C@@H]2CSSC[C@@H]3NC(=O)[C@H](CCC(N)=O)NC(=O)[C@H](Cc4ccccc4)NC(=O)[C@H](C)NC(=O)[C@H]([C@@H](C)O)NC(=O)[C@H](CSSC[C@H](NC(=O)[C@H](Cc4ccccc4)NC(=O)[C@H](CO)NC(=O)[C@H](CC(C)C)NC(=O)[C@H](CCCNC(=N)N)NC(=O)[C@H](Cc4ccc(O)cc4)NC(=O)[C@H](CCCCN)NC(=O)[C@H](CCSC)NC(=O)[C@H](CO)NC(=O)[C@H](CCCNC(=N)N)NC(=O)[C@H](CCCCN)NC3=O)C(=O)N[C@@H](CCCNC(=N)N)C(=O)N[C@@H](CCCCN)C(=O)N[C@@H]([C@@H](C)O)C(=O)N2)NC(=O)[C@H](CCCNC(=N)N)NC(=O)[C@H](CO)NC(=O)[C@H](CCCCN)NC(=O)[C@@H]2CCCN2C(=O)[C@H]([C@@H](C)CC)NC(=O)[C@H]([C@@H](C)O)NC(=O)[C@H](CC(=O)O)NC1=O` [[Arg19]ShK], the IC50 amounted to 0.1 nM against hKv1.3, 0.039 nM in test [1] and 0.116 nM in test [2].

On to `CC[C@H](C)[C@@H]1NC(=O)[C@@H](NC(=O)[C@H](CO)NC(=O)[C@@H](N)CCCNC(=N)N)CSSC[C@@H](C(=O)O)NC(=O)[C@H]([C@@H](C)O)NC(=O)CNC(=O)[C@@H]2CSSC[C@@H]3NC(=O)[C@H](CCC(N)=O)NC(=O)[C@H](Cc4ccccc4)NC(=O)[C@H](C)NC(=O)[C@H]([C@@H](C)O)NC(=O)[C@H](CSSC[C@H](NC(=O)[C@H](Cc4ccccc4)NC(=O)[C@H](CO)NC(=O)[C@H](CC(C)C)NC(=O)[C@H](CCCNC(=N)N)NC(=O)[C@H](Cc4ccc(O)cc4)NC(=O)[C@H](CCCCN)NC(=O)[C@H](CCSC)NC(=O)[C@H](CCCNC(=N)N)NC(=O)[C@H](Cc4c[nH]cn4)NC(=O)[C@H](CCCCN)NC3=O)C(=O)N[C@@H](CCCNC(=N)N)C(=O)N[C@@H](CCCCN)C(=O)N[C@@H]([C@@H](C)O)C(=O)N2)NC(=O)[C@H](CCCNC(=N)N)NC(=O)[C@H](CO)NC(=O)[C@H](CCCCN)NC(=O)[C@@H]2CCCN2C(=O)[C@H]([C@@H](C)CC)NC(=O)[C@H]([C@@H](C)O)NC(=O)[C@H](CC(=O)O)NC1=O` [[Arg20]ShK], for which the IC50 stood at 3.84 nM on hKv1.3, 36.9 nM in test [1] and 31.3 nM in test [2].

In the case of `CC[C@H](C)[C@@H]1NC(=O)[C@@H](NC(=O)[C@H](CO)NC(=O)[C@@H](N)CCCNC(=N)N)CSSC[C@@H](C(=O)O)NC(=O)[C@H]([C@@H](C)O)NC(=O)CNC(=O)[C@@H]2CSSC[C@@H]3NC(=O)[C@H](CCC(N)=O)NC(=O)[C@H](Cc4ccccc4)NC(=O)[C@H](C)NC(=O)[C@H]([C@@H](C)O)NC(=O)[C@H](CSSC[C@H](NC(=O)[C@H](Cc4ccccc4)NC(=O)[C@H](CO)NC(=O)[C@H](CC(C)C)NC(=O)[C@H](CCCNC(=N)N)NC(=O)[C@H](Cc4ccc(O)cc4)NC(=O)[C@H](CCCCN)NC(=O)[C@H](CCCNC(=N)N)NC(=O)[C@H](CO)NC(=O)[C@H](Cc4c[nH]cn4)NC(=O)[C@H](CCCCN)NC3=O)C(=O)N[C@@H](CCCNC(=N)N)C(=O)N[C@@H](CCCCN)C(=O)N[C@@H]([C@@H](C)O)C(=O)N2)NC(=O)[C@H](CCCNC(=N)N)NC(=O)[C@H](CO)NC(=O)[C@H](CCCCN)NC(=O)[C@@H]2CCCN2C(=O)[C@H]([C@@H](C)CC)NC(=O)[C@H]([C@@H](C)O)NC(=O)[C@H](CC(=O)O)NC1=O` [[Arg21]ShK], the IC50 against hKv1.3 came to 0.283 nM; in test [1], 1.76 nM; in test [2], 4.66 nM.

With `CC[C@H](C)[C@@H]1NC(=O)[C@@H](NC(=O)[C@H](CO)NC(=O)[C@@H](N)CCCNC(=N)N)CSSC[C@@H](C(=O)O)NC(=O)[C@H]([C@@H](C)O)NC(=O)CNC(=O)[C@@H]2CSSC[C@@H]3NC(=O)[C@H](CCC(N)=O)NC(=O)[C@H](Cc4ccccc4)NC(=O)[C@H](C)NC(=O)[C@H]([C@@H](C)O)NC(=O)[C@H](CSSC[C@H](NC(=O)[C@H](Cc4ccccc4)NC(=O)[C@H](CO)NC(=O)[C@H](CCCNC(=N)N)NC(=O)[C@H](CCCNC(=N)N)NC(=O)[C@H](Cc4ccc(O)cc4)NC(=O)[C@H](CCCCN)NC(=O)[C@H](CCSC)NC(=O)[C@H](CO)NC(=O)[C@H](Cc4c[nH]cn4)NC(=O)[C@H](CCCCN)NC3=O)C(=O)N[C@@H](CCCNC(=N)N)C(=O)N[C@@H](CCCCN)C(=O)N[C@@H]([C@@H](C)O)C(=O)N2)NC(=O)[C@H](CCCNC(=N)N)NC(=O)[C@H](CO)NC(=O)[C@H](CCCCN)NC(=O)[C@@H]2CCCN2C(=O)[C@H]([C@@H](C)CC)NC(=O)[C@H]([C@@H](C)O)NC(=O)[C@H](CC(=O)O)NC1=O` [[Arg25]ShK], the IC50 amounted to 0.107 nM on hKv1.3, 0.095 nM in test [1] and 0.2 nM in test [2].
